Several values for one entry are separate records, joined by “and”; a condition that tells them apart may be missing. Identical values can stand only once.
Experiments:
SR = conditions: NCI Data NSC: 800934 ref 41; cited from earlier work
SK-MEL-2 = conditions: NCI Data NSC: 800934 ref 41; cited from earlier work
UO-31 = conditions: NCI Data NSC: 800934 ref 41; cited from earlier work
A498 = conditions: NCI Data NSC: 800934 ref 41; cited from earlier work
MOLT-4 = conditions: NCI Data NSC: 800934 ref 41; cited from earlier work
OVCAR-3 = conditions: NCI Data NSC: 800934 ref 41; cited from earlier work
Breast cancer cell lines = conditions: read-out: MG-MID GI50; Breast Cancer subpanel; NCI Data NSC: 800934; cited from earlier work
ACHN = conditions: NCI Data NSC: 800934 ref 41; cited from earlier work
HOP-62 = conditions: NCI Data NSC: 800934 ref 41; cited from earlier work
UACC-257 = conditions: NCI Data NSC: 800934 ref 41; cited from earlier work
SF-268 = conditions: NCI Data NSC: 800934 ref 41; cited from earlier work
T-47D = conditions: NCI Data NSC: 800934 ref 41; cited from earlier work
SF-295 = conditions: NCI Data NSC: 800934 ref 41; cited from earlier work
SN12C = conditions: NCI Data NSC: 800934 ref 41; cited from earlier work
KM12 = conditions: NCI Data NSC: 800934 ref 41; cited from earlier work
SNB-75 = conditions: NCI Data NSC: 800934 ref 41; cited from earlier work
SNB-19 = conditions: NCI Data NSC: 800934 ref 41; cited from earlier work
HT29 = conditions: NCI Data NSC: 800934 ref 41; cited from earlier work
OVCAR-8 = conditions: NCI Data NSC: 800934 ref 41; cited from earlier work
IGROV1 = conditions: NCI Data NSC: 800934 ref 41; cited from earlier work
NCI-H23 = conditions: NCI Data NSC: 800934 ref 41; cited from earlier work
MALME-3M = conditions: NCI Data NSC: 800934 ref 41; cited from earlier work
OVCAR-5 = conditions: NCI Data NSC: 800934 ref 41; cited from earlier work
NCI-H460 = conditions: NCI Data NSC: 800934 ref 41; cited from earlier work
HS 578 T = conditions: NCI Data NSC: 800934 ref 41; cited from earlier work
HCC-2998 = conditions: NCI Data NSC: 800934 ref 41; cited from earlier work
CCRF-CEM = conditions: NCI Data NSC: 800934 ref 41; cited from earlier work
SK-OV-3 = conditions: NCI Data NSC: 800934 ref 41; cited from earlier work
Renal cancer cell lines = conditions: read-out: MG-MID GI50; Renal Cancer subpanel; NCI Data NSC: 800934; cited from earlier work
[1] = system: Prostate cancer cell lines; conditions: read-out: MG-MID GI50; Prostatic Cancer subpanel; NCI Data NSC: 800934; cited from earlier work
SF-539 = conditions: NCI Data NSC: 800934 ref 41; cited from earlier work
MDA-MB-435 = conditions: NCI Data NSC: 800934 ref 41; cited from earlier work
M14 = conditions: NCI Data NSC: 800934 ref 41; cited from earlier work
NCI/ADR-RES = conditions: NCI Data NSC: 800934 ref 41; cited from earlier work
HCT-15 = conditions: NCI Data NSC: 800934 ref 41; cited from earlier work
EKVX = conditions: NCI Data NSC: 800934 ref 41; cited from earlier work
786-0 = conditions: NCI Data NSC: 800934 ref 41; cited from earlier work
Leukaemia cell lines = conditions: read-out: MG-MID GI50; leukaemia subpanel; NCI Data NSC: 800934; cited from earlier work
U251 = conditions: NCI Data NSC: 800934 ref 41; cited from earlier work
CNS cancer cell lines = conditions: read-out: MG-MID GI50; CNS Cancer subpanel; NCI Data NSC: 800934; cited from earlier work
UACC-62 = conditions: NCI Data NSC: 800934 ref 41; cited from earlier work
NSCLC cell lines = conditions: read-out: MG-MID GI50; NSCLC subpanel; NCI Data NSC: 800934; cited from earlier work
SK-MEL-28 = conditions: NCI Data NSC: 800934 ref 41; cited from earlier work
TK-10 = conditions: NCI Data NSC: 800934 ref 41; cited from earlier work
NCI-H522 = conditions: NCI Data NSC: 800934 ref 41; cited from earlier work
Colon cancer cell lines = conditions: read-out: MG-MID GI50; Colon Cancer subpanel; NCI Data NSC: 800934; cited from earlier work
[2] = system: Ovarian cancer cell lines; conditions: read-out: MG-MID GI50; Ovarian Cancer subpanel; NCI Data NSC: 800934; cited from earlier work
DU-145 = conditions: NCI Data NSC: 800934 ref 41; cited from earlier work
HL-60(TB) = conditions: NCI Data NSC: 800934 ref 41; cited from earlier work
Melanoma cell lines = conditions: read-out: MG-MID GI50; Melanoma subpanel; NCI Data NSC: 800934; cited from earlier work
RXF 393 = conditions: NCI Data NSC: 800934 ref 41; cited from earlier work
SW-620 = conditions: NCI Data NSC: 800934 ref 41; cited from earlier work
NCI-H226 = conditions: NCI Data NSC: 800934 ref 41; cited from earlier work
A549/ATCC = conditions: NCI Data NSC: 800934 ref 41; cited from earlier work
[3] = system: NCI 60-cell line panel (full panel); conditions: read-out: Full panel MG-MID GI50, NCI Data NSC: 800934; cited from earlier work
NCI-H322M = conditions: NCI Data NSC: 800934 ref 41; cited from earlier work
BT-549 = conditions: NCI Data NSC: 800934 ref 41; cited from earlier work
CAKI-1 = conditions: NCI Data NSC: 800934 ref 41; cited from earlier work
MCF7 = conditions: NCI Data NSC: 800934 ref 41; cited from earlier work
LOX IMVI = conditions: NCI Data NSC: 800934 ref 41; cited from earlier work
COLO 205 = conditions: NCI Data NSC: 800934 ref 41; cited from earlier work
PC-3 = conditions: NCI Data NSC: 800934 ref 41; cited from earlier work
OVCAR-4 = conditions: NCI Data NSC: 800934 ref 41; cited from earlier work
HCT-116 (colon cancer) [4] = assay: Apoptosis AV/PI assay by flow cytometry; assay type: cell-based, human; conditions: HCT-116, 24 h, IC50 of compound
Bax [5] = assay: Protein level by ELISA assay in HCT-116; assay type: cell-based, human; conditions: HCT-116, IC50 of compound, 24 h, vs 0.1% DMSO
TNF-α = assay: Gene expression by RT-qPCR in HCT-116; conditions: HCT-116, 24 h, IC50 of compound; vs 0.1% DMSO; 2^-ΔΔct
HCT-116 (colon cancer) [6] = assay: Cell cycle analysis by PI flow cytometry; assay type: cell-based, human; conditions: HCT-116, 24 h, IC50 of compound
Cyt-c = assay: Gene expression by RT-qPCR in HCT-116; conditions: HCT-116, 24 h, IC50 of compound; vs 0.1% DMSO; 2^-ΔΔct
Bax [7] = assay: Gene expression by RT-qPCR in HCT-116; conditions: HCT-116, 24 h
Bcl-2 = assay: Gene expression by RT-qPCR in HCT-116; conditions: HCT-116, 24 h, IC50 of compound; vs 0.1% DMSO; 2^-ΔΔct
Caspase-3 [8] = assay: Protein level by ELISA assay in HCT-116; assay type: cell-based, human; conditions: HCT-116, IC50 of compound, 24 h, vs 0.1% DMSO
Caspase-3 [9] = assay: Gene expression by RT-qPCR in HCT-116; conditions: HCT-116, 24 h, IC50 of compound; vs 0.1% DMSO; 2^-ΔΔct

## CNC(=O)c1cc(Oc2ccc(NC(=O)Nc3ccc(Cl)c(C(F)(F)F)c3)cc2)ccn1 [Sorafenib]
SR
  GI50: 1.99 µM
SK-MEL-2
  GI50: 1.25 µM
UO-31
  GI50: 3.16 µM
A498
  GI50: 3.16 µM
MOLT-4
  GI50: 2.51 µM
OVCAR-3
  GI50: 3.98 µM
Breast cancer cell lines
  GI50: 2.76 µM
ACHN
  GI50: 3.16 µM
HOP-62
  GI50: 2.51 µM
UACC-257
  GI50: 1.99 µM
SF-268
  GI50: 3.98 µM
T-47D
  GI50: 1.99 µM
SF-295
  GI50: 2.51 µM
SN12C
  GI50: 3.16 µM
KM12
  GI50: 2.51 µM
SNB-75
  GI50: 1.99 µM
SNB-19
  GI50: 5.01 µM
HT29
  GI50: 2.51 µM
OVCAR-8
  GI50: 3.16 µM
IGROV1
  GI50: 3.16 µM
NCI-H23
  GI50: 1.99 µM
MALME-3M
  GI50: 3.16 µM
OVCAR-5
  GI50: 3.16 µM
NCI-H460
  GI50: 3.16 µM
HS 578 T
  GI50: 3.16 µM
HCC-2998
  GI50: 3.16 µM
CCRF-CEM
  GI50: 3.16 µM
SK-OV-3
  GI50: 3.16 µM
Renal cancer cell lines
  GI50: 3.46 µM
[1]
  GI50: 3.5 µM
SF-539
  GI50: 1.99 µM
MDA-MB-435
  GI50: 1.99 µM
M14
  GI50: 1.99 µM
NCI/ADR-RES
  GI50: 3.16 µM
HCT-15
  GI50: 2.51 µM
EKVX
  GI50: 3.16 µM
786-0
  GI50: 3.98 µM
Leukaemia cell lines
  GI50: 1.91 µM
U251
  GI50: 3.16 µM
CNS cancer cell lines
  GI50: 3.1 µM
UACC-62
  GI50: 2.51 µM
NSCLC cell lines
  GI50: 2.53 µM
SK-MEL-28
  GI50: 2.51 µM
TK-10
  GI50: 3.98 µM
NCI-H522
  GI50: 1.99 µM
Colon cancer cell lines
  GI50: 2.68 µM
[2]
  GI50: 3.27 µM
DU-145
  GI50: 5.01 µM
HL-60(TB)
  GI50: 0.63 µM
Melanoma cell lines
  GI50: 2.16 µM
RXF 393
  GI50: 3.98 µM
SW-620
  GI50: 3.98 µM
NCI-H226
  GI50: 1.25 µM
A549/ATCC
  GI50: 3.16 µM
[3]
  GI50: 2.76 µM
NCI-H322M
  GI50: 3.98 µM
BT-549
  GI50: 3.16 µM
CAKI-1
  GI50: 3.16 µM
MCF7
  GI50: 2.51 µM
LOX IMVI
  GI50: 2.51 µM
COLO 205
  GI50: 2.51 µM
PC-3
  GI50: 1.99 µM
OVCAR-4
  GI50: 3.16 µM

## COc1cccc2c1C(=O)c1c(O)c3c(c(O)c1C2=O)C[C@@](O)(C(=O)CO)C[C@@H]3O[C@H]1C[C@H](N)[C@H](O)[C@H](C)O1 [Doxorubicin, reference compound]
HCT-116 (colon cancer) [4]
  % Early apoptotic cells (LR): 0.00 ± 0.0%
  % Late apoptotic cells (UL): 3.86 ± 0.66%
  % Necrotic cells (UR): 96.12 ± 14.1%
  % Viable cells (LL): 0.03 ± 0.001%
Bax [5]
  Bax protein level: 1.86 fold
TNF-α
  TNF-α gene expression fold change: 2.33 fold and 2.33 ± 0.2 fold
HCT-116 (colon cancer) [6]
  % G0-G1: 55.35 ± 6.3%
  % G2M: 15.05 ± 6.7%
  % S: 18.68 ± 2.2%
  % SubG0-G1: 10.75 ± 2.3%
Cyt-c
  Cyt-c gene expression fold change: 44.32 ± 4.3 fold
Bax [7]; IC50 of compound, vs 0.1% DMSO, 2^-ΔΔct
  Bax gene expression fold change: 0.31 ± 0.05 fold
Bax [7]; ratio of gene expression fold changes
  Bax/Bcl-2 ratio: 2
Bcl-2
  Bcl-2 gene expression fold change: 0.15 ± 0.03 fold
Caspase-3 [8]
  caspase-3 protein level: 34.15 fold
Caspase-3 [9]
  Caspase-3 gene expression fold change: 0.75 ± 0.09 fold

From article PMC11003488 (Journal of Enzyme Inhibition and Medicinal Chemistry, 2023)
